Paper PMC9344054, “Studies on Chemical Characterization of Ginkgo Amillaria Oral Solution and Its Drug–Drug Interaction With Piceatannol 3′-O-β-D-Glucopyranoside for Injection” (Frontiers in Pharmacology, 2022)

Tests used:
UGT2B7 = experiment: Metabolism of PG based on UGTs, rat liver microsomes with inhibitor fluconazole; type: in vitro ADME; conditions: PG 10 μmol L−1, fluconazole 50 μmol L−1, p > 0.05
Procedure: The incubation mixtures consisted of 1 mg mL^−1 of rat liver microsomes, 1 mmol L^−1 of UDPGA and 10 μmol L^−1 of PG, tris-HCl (pH = 7.4) and inhibitor (pazopanib (50 μmol L^−1)), niflumic acid (10 μmol L^−1), and fluconazole (50 μmol L^−1). The incubation system was the same as that in “2.4.1.,” whereas polydatin (20 μg mL^−1) was selected as the IS. Detection and analysis conditions based on UPLC-QQQ-MS were the same as those in “2.4.2.” The MRM transitions, cone voltage, and collision voltage of the target compounds and IS are shown in Supplementary Table S1.

[1] = Pharmacokinetic study of PGI alone and after repeated GAO in rats; type: in vivo, rat; conditions: for clearance / AUC(0-inf) / AUC(0-t) / half-life: male, SD, rat, plasma, iv, 9 mg/kg, n = 8; for clearance: CL
Procedure: A total of 100 μl of rat plasma sample and 10 μl of polydatin solution (IS) were mixed with 400 μl of ice acetonitrile; the mixture was vortexed for 3 min and centrifuged at 13,200 × g under 4℃ for 20 min. The supernatant was transferred to another centrifuge tube and dry with nitrogen, re-dissolved with 100 μl of 80% methanol-H2O (v/v). The mixture was vortexed for 3 min and centrifuged at 13,200 × g under 4℃ for 20 min. For further LC-MS analysis, 3 μl of the supernatant was injected.
An ultrahigh-performance liquid chromatography-mass spectrometer (Waters, United States) was used for separation and detection. A Waters ACQUITY UPLC HSS T3 column (2.1 × 100 mm, 1.8 μm) was employed at 35℃ with a flow rate of 0.3 ml min^−1. The mobile phase consisted of acetonitrile (A) and water containing 0.1% FA (B). The following linear gradient was used: 0–4 min: 25–95% A; 4–4.5 min: 95–25% A; and 4.5–6 min: 25% A.
MRM was performed using QQQ-MS model Xevo TQ-S (Waters, United States). ESI was set as follows: capillary voltage, 3.0 kV; desolvation temperature, 450℃; and desolvation gas flow, 900 L/h (N2, purity 99.9%). The MRM transitions (precursor → product) of PG and polydatin (IS) were m/z 405.16 → m/z 243.18 and m/z 389.16 → m/z 227.20, respectively. The cone voltage of PG and polydatin were 80 and 84 V, respectively. The collision energy of PG and polydatin was 30 and 20 V, respectively.
Sixteen SD male rats (200 ± 20 g) were purchased from Beijing Vital River Laboratory Animal Technology Co., Ltd. (license number: SCXK (Beijing) 2016-0006). All rats were reared adaptively in a suitable environment for 1 week with freely available food and water. The temperature was maintained at 22℃, and the light was maintained for 12 h in a day.
The rats were randomly divided into two groups, viz., the control group (n = 8) and the combined group (n = 8). For the control group, 9 mg kg^−1 of PGI was injected into the tail vein of rats, whereas the same dosage of PGI was injected after 14 days of repeated GAO ingestion (51 mg kg^−1) for the combined group. The dosage administered to rats is in accordance with clinical dosage. After administration, blood samples were obtained from each rat at 0.03, 0.08, 0.16, 0.33, 0.5, 0.75, 1, 2, 3, 4, and 6 h. The blood sample was centrifuged at 6,600 × g under 4℃ for 10 min, and the supernatant was stored at −80℃ for further analysis.
Pharmacokinetic parameters were calculated under a noncompartmental model using Drug and Statistics 1.0 (DAS 1.0) software.

[2] = Stability of PG in rat blank plasma (method validation); type: in vitro ADME; set-up: unit not given here; conditions: n = 6
Procedure: UPLC-MS/MS method validation was performed according to the FDA bioanalytical method validation guidance. The method was validated in terms of linearity, accuracy, precision, extraction recovery, matrix effect, and stability.
The result of specificity is shown in Supplementary Figure S12. The RTs of PG and polydatin were 1.47 and 1.70 min, respectively. Their chromatographic peaks were in good shape, and there was no interference from other endogenous substances. The regression equation of PG was y = 0.584781x − 0.47063, and the r ^2 and range of the linear were 0.9929 and 0.001–40 μg mL^−1, respectively. LLOQ was 0.5 ng mL^−1. The RSD of the intraday and interday precision was less than 15%, and the accuracy was between 80% and 120% (Supplementary Table S11). […] The stability of PG was less than 12.83% (Supplementary Table S13 ). It was shown that the established method complies with the relevant regulations of pharmacokinetics.

[3] = after 14 days repeated GAO, p < 0.05
[4] = Combined group: PGI 9 mg kg−1 tail vein after 14 days of repeated GAO 51 mg kg−1, rats
[5] = Control group: PGI 9 mg kg−1 tail vein, rats

- contribution of UGT2B7 to metabolism of PG (UGT2B7): contributed little or no participation
- change of AUC 0-t of PG, combined group vs control [1, 3]: significantly increased
- change of AUC 0-∞ of PG, combined group vs control [1, 3]: significantly increased
- change of T1/2 of PG, combined group vs control [1, 3]: prolonged
- change of clearance of PG, combined group vs control [1, 3]: significantly decreased
- clearance [1, 4]: 30.4 mL/min/kg
- clearance [1, 5]: 46.2 mL/min/kg
- AUC(0-inf) [1, 4]: 5010 ± 686 ng·h/mL
- AUC(0-t) [1, 4]: 4900 ± 606 ng·h/mL
- half-life [1, 4]: 1.74 ± 0.802 h
- AUC(0-inf) [1, 5]: 3320 ± 525 ng·h/mL
- AUC(0-t) [1, 5]: 3310 ± 517 ng·h/mL
- half-life [1, 5]: 1.01 ± 0.409 h
- Stability, Measured con. ([2]; 4h, Con. 0.005 μg/mL): 111.33
- Stability, Measured con. ([2]; 4h, Con. 5 μg/mL): 117.12
- Stability, Measured con. ([2]; 4h, Con. 30 μg/mL): 98.21
- Stability, Measured con. ([2]; 24h, Con. 0.005 μg/mL): 116.33
- Stability, Measured con. ([2]; 24h, Con. 5 μg/mL): 115.03
- Stability, Measured con. ([2]; 24h, Con. 30 μg/mL): 98.37
- Stability, Measured con. ([2]; 15 days, Con. 0.005 μg/mL): 92.00
- Stability, Measured con. ([2]; 15 days, Con. 5 μg/mL): 100.78
- Stability, Measured con. ([2]; 15 days, Con. 30 μg/mL): 96.48
- Stability, Measured con. ([2]; Freeze-thaws stability (3 times), Con. 0.005 μg/mL): 107.66
- Stability, Measured con. ([2]; Freeze-thaws stability (3 times), Con. 5 μg/mL): 104.58
- Stability, Measured con. ([2]; Freeze-thaws stability (3 times), Con. 30 μg/mL): 105.11
Compound: OC[C@H]1O[C@@H](Oc2cc(/C=C/c3cc(O)cc(O)c3)ccc2O)[C@H](O)[C@@H](O)[C@@H]1O [PG, Piceatannol-3′-O-β-D-glucopyranoside]
